The record followed here is publication PMC4579270, “Identification and Characterization of an Irreversible Inhibitor of CDK2” (Chemistry & Biology, 2015).

SMILES strings stand for the structures.

The remaining activity is the share of the control activity or signal that is left under treatment.

Assay type in all cases: biochemical
The target in one assay is PIM3 (Homo sapiens, UniProt Q86V86). The assay is described as follows: Dundee protein kinase screen. As to conditions: PIM3, 1µM; read-out: %Remaining activity at 1µM NU6300. The method in brief: (§1)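 Selectivity panel of 131 protein kinases, inhibitor tested at a single concentration of 1 µM; values are % kinase activity remaining, mean of duplicates. Re-test of selected kinases used 0.5 µM in the standard format and again after a 4 hour pre-incubation with the inhibitor.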

A further assay concerns the target T1, TSSK1 (Homo sapiens, UniProt Q9BXA7).
T1 sequence (Q9BXA7 1-367): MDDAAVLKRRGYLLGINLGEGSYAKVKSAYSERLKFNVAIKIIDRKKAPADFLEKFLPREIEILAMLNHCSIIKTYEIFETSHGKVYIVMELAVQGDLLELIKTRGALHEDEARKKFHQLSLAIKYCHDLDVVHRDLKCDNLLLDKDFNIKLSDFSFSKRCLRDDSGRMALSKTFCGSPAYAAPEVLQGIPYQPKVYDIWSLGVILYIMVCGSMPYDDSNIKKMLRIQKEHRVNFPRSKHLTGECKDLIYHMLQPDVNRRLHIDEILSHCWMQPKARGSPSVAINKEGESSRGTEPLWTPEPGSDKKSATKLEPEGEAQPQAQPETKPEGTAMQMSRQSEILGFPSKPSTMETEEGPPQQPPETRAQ
Kind of assay: Dundee protein kinase screen. The note with it: TSSK1, 1µM; read-out: %Remaining activity at 1µM NU6300. The procedure, abridged: as §1

The next assay concerns the target p38δ MAPK (Homo sapiens, UniProt O15264). The assay is described as follows: Dundee protein kinase screen. As to conditions: read-out: %Remaining activity at 1µM NU6300. The procedure, abridged:
as §1

The target in the next assay is MKK2 (Homo sapiens, UniProt P36507). The assay is described as follows: Dundee protein kinase screen. As to conditions: MKK2, 1µM; read-out: %Remaining activity at 1µM NU6300. The method in brief: as §1
Chain of MKK2 (P36507 whole entry): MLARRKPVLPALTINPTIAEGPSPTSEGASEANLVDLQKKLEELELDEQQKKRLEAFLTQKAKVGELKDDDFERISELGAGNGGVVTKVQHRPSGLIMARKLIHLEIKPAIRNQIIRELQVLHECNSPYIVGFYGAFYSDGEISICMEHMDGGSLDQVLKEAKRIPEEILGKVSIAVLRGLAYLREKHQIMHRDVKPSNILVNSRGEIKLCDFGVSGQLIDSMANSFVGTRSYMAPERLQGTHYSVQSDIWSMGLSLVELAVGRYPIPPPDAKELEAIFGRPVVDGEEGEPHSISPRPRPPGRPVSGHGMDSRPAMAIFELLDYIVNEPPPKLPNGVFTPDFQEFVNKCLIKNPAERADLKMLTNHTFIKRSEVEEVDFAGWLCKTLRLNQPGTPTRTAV
For a further assay, the target named is T2, CDK2^K88E/cyclin A (Homo sapiens, UniProt P24941, K88E).
T2 construct: GST (N, cleaved yes); made in house; host or cells: Escherichia coli; phosphorylated in vitro by GST-CAK
The assay is described as follows: Bandshift kinase assay after incubation and dialysis, mutant. On the procedure:
The bandshift experiment was repeated after incubating CDK2^K88E/cyclin A and CDK2^K89V/cyclin A with NU6300, NU6310, or DMSO followed by dialysis to remove unbound inhibitor (Figure S2G).
Figure S2, Related to Figure 3. Identification of the site of CDK2 modification by NU6300. (A-G) Single site CDK2 mutants CDK2D86A, CDK2K88E, and CDK2K89V identify the site of CDK2 modification by NU6300. These mutations change the CDK2 sequence to that of CDK7 and are known not to disrupt the CDK2 fold. Mass spectra of CDK2 mutants: […]
(G) Protein kinase activity of authentic CDK2 and single site CDK2 mutants following incubation with NU6300 or NU6310. Samples were taken at the indicated number of minutes after initiation of the reaction. Note that compared to authentic CDK2, the single site Lys88 and Lys89 mutants have a slower rate of reaction (Compare LHS panels). This drop in activity was expected because whereas the wild type protein was produced by co-expression with S. cerevisiae […]
the mutant proteins were activated by S. cerevisiae CAK1 phosphorylation in vitro– a relatively inefficient process as judged from the results of ESI-MS (Table S1). (H) NU6300 […]
NU6300 carbon atoms are coloured green. Rb, retinoblastoma protein, Phospho-Rb, […]
Protein expression and purification
Site-directed mutagenesis of CDK2 was performed using the QuikChange II kit (Stratagene) following the manufacturer’s instructions and verified by DNA sequencing.
Wild-type CDK2 phosphorylated at Thr160, untagged human cyclin A2 (residues 174-432), S. cerevisiae GST–CAK, GST–3C-protease and GST–pRb (residues 792–928) were expressed and purified as previously described (Brown et al., 1999a; Brown et al., 1999b; Welburn and Endicott, 2005). […]
CDK2/cyclin A (200 µM) was incubated overnight with 1 mM inhibitor or DMSO, and then dialysed for 8 h with regular replacement of dialysis buffer into HEPES-buffered saline (50 mM HEPES, pH 7.5, 250 mM NaCl, 0.02% MTG). […] Reactions were stopped by addition of SDS-PAGE loading buffer and analyzed by SDS-PAGE. […]

Chain of p38δ MAPK (O15264 whole entry): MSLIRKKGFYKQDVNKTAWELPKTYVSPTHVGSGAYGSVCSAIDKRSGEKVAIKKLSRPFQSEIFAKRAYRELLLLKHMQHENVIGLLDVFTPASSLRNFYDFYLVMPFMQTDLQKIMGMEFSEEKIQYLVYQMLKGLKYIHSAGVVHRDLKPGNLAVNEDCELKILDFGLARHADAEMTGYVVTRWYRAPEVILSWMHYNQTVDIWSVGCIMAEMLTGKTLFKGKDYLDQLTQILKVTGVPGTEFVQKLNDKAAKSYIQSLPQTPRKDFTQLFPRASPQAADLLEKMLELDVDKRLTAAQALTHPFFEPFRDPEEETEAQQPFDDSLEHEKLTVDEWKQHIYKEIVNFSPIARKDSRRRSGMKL

For `C=CS(=O)(=O)c1ccc(Nc2nc(OCC3CCCCC3)c3nc[nH]c3n2)cc1` [NU6300, 6-(cyclohexylmethoxy)-N-(4-(vinylsulfonyl)phenyl)-9H-purin-2-amine], the remaining activity at 1 µM at PIM3 was 56%; at TSSK1 it was 26%; at p38δ MAPK it was 92%; at MKK2, 84%.
In the case of `CCS(=O)(=O)c1ccc(Nc2nc(OCC3CCCCC3)c3nc[nH]c3n2)cc1` [NU6310, 6-(cyclohexylmethoxy)-N-(4-(ethylsulfonyl)phenyl)-9H-purin-2-amine], the “CDK2 activity against Rb after incubation with inhibitor and dialysis” value on CDK2^K88E/cyclin A is on record as “recovered their activity”.
